Source: US10174120B2, “Methods and compositions for treating solid tumors and enhancing tumor vaccines” (THE TRUSTEES OF THE UNIVERSITY OF PENNSYLVANIA, priority 2007, dated 2019)
Entries after “also recorded” stand apart in the source; their conditions may differ.

Columns and labels:
HUVEC [1] = assay: Adhesion of activated T cells to pretreated HUVEC; assay type: cell-based, human; settings: for adherence of activated human T cells to HUVEC: T cells activated with PMA or CD3/CD28, Endothelin plus BQ-788 compared to Endothelin alone, Endothelin and ETRA antagonist, or untreated; for T cell adhesion to HUVEC in the presence of TNF- and ET-1: NO antagonist / NO donor under the same experimental conditions
Procedure: (§1) Human vascular endothelial cells (HUVEC) were grown to 70% confluence in EBM media then treated with 50 nM Endothelin receptor B inhibitor BQ-788 (American peptide), or 2.5 nm Endothelin alone or in the presence of either 50 nm Endothelin receptor A inhibitor BQ123 (American peptide), or 50 nM Endothelin receptor B inhibitor BQ-788. Alternatively cells were treated with BQ-788 alone. Media was changed every 48 hrs for a total of 6 days. After 6 days cells were harvested for RNA, flow cytometry or incubated activated T cells. T cells were activated for 48 hours with either 5 ng/ml PMA […] or CD3 and CD28 beads. After activation T cells were labeled with CFSE and then incubated with pretreated endothelial cells for 2 hours with shaking. Cells were then washed 3× with PBS and adhesions was determined using a fluorescent plate reader.
The ability of activated T cells to adhere to BQ-788-treated HUVEC was also tested. […] T cell adherence to BQ788/Endothelin-treated HUVEC was 40% as effective as TNF-alpha activation of HUVEC. Thus, under the conditions utilized, BQ788 induces expression of ICAM-1 on endothelial cells and leads to increased T cell adhesion to tumor endothelium, playing a role in its increase of intratumoral T cells and enhancement of vaccine efficacy.
(§2) To further test the role of ETRB signaling in adhesion, the effects of NO antagonist L-NAME and NO donor DETANO were tested under the above experimental conditions. […] Thus, ET-1, through ETRB, downregulates the ability of endothelium to respond to inflammatory signals present in the tumor microenvironment such as TNF-α, which is restored by blocking ETRB through BQ788. Further, an NO antagonist abrogated the effects of ET-1, while NO donor reproduced its effect, showing that NO plays a role in the inhibitory effect of ET-1. To further test whether ETRB signaling upregulates NO in endothelial cells, reactive oxidative species (ROS) were quantified in HUVEC.

CD3+/CD8+ splenocytes = assay: T cell proliferation assay, CFSE-labeled splenocytes with DC pulsed with UV-radiated ID8; assay type: cell-based, mice; settings: BQ-788 versus control peptide, 6 days with ID8-pulsed DC
Description: (§3) To confirm that ETRB plays a role in inhibiting T cell homing to human ovarian cancers, the ID8 syngeneic mouse model of ovarian cancer was utilized. This model responds modestly to potent dendritic cell (DC) vaccination. Strong expression of ETRB was detected in tumor endothelium in ID8 flank tumors by IHC (FIG. 7). Mice were vaccinated with a suboptimal preventive vaccine, containing UV-treated ID8 cells, which results in induction of systemic tumor-reactive interferon-gamma secreting T cells without significant delay in tumor growth Following vaccination, mice were inoculated with flank tumors, which were allowed to engraft for 2 or 5 weeks, and then mice were treated i.p. with the ETRB antagonist peptide, BQ-788, […] (SEQ ID No: 90), every 2nd day for 2 weeks or with control peptide that was a scrambled version of the above peptide. Additional controls included non-vaccinated animals treated with BQ-788 or control peptide. To confirm that the above vaccination scheme results in significant increase in the frequency of systemic tumor-reactive T cells, CD3^+/CD8^+ splenocytes from vaccinated animals treated with BQ-788 or control peptide, and from non-vaccinated mice, were labeled with CFSE and incubated with DC pulsed with UV-radiated ID8 for 6 days to assess proliferation. […] Proliferation of lymphocytes from vaccinated mice treated with BQ-788 or control peptide was similar.

HUVEC [2] = assay: HUVEC treated with Endothelin and BQ-788: morphology and qRT-PCR; assay type: cell-based, human; settings: for morphology of HUVEC: BQ-788 in the presence of Endothelin, 6 days
Procedure: qRT-PCR was performed using primers to the 3′ end of transcripts spanning intron-exon boundaries whenever possible for 35 cycles using Sybergreen® (ABI, Foster City, Calif.), with primers at 150 nM concentrations. Primers were 18-24 nucleotides and were designed to have a TM of 59-61° C. All transcripts were confirmed using 3% agarose gel electrophoresis. Gene expression was normalized against β-actin in all studies unless stated otherwise.
as §1
Next, the effect of BQ-788 on human and murine endothelial cells or T cells was tested in the presence or absence of ET-1 ligand. In addition, the effect of endothelin receptor A antagonist BQ123 was tested. […] Moreover, there was a decrease in the expression of VE-Cadherin mRNA in BQ788-treated cells (FIG. 9).

HUVEC [3] = assay: Reactive oxidative species (ROS) quantified in HUVEC; assay type: cell-based, human; settings: for ROS in HUVEC: exposure to rhET-1, with or without BQ788
Procedure: as §2

ID8 flank tumors [4] = assay: T cell infiltration into ID8 flank tumors (IHC, flow cytometry); assay type: in vivo, mice
Procedure: (§4) Two injections of 5×10 6th UV irradiated ID8 ovarian cancer cells were injected sub-cutaneously in C57Bl6 mice one week apart. Vaccinated mice and non-vaccinated controls were injected with 5×10^6 ID8 cells in the flank with […] matrigel or intraperitoneally. Tumors were allowed to grow for 2 or 5 weeks as indicated, and then treated with intraperitoneal injections of BQ-788 (300 mcg) or control peptide for 2 weeks.
FACS analysis was performed using APC-CD45 (BD Pharmingen), PE-anti CD3, FITC anti CD4, and Biotin anti-CD8 coupled with streptavid PE-Cy7.
as §3
Tumor growth delay was not observed in non-vaccinated mice treated with BQ-788 or in vaccinated mice treated with control peptide. […] Flow cytometry from mechanically dissected tumors confirmed the results observed with IHC: In non-vaccinated animals treated with BQ-788 as well as in vaccinated animals treated with control peptide, CD3^+ cells represented on average 4% of the cells (range 0.5 to 12%), while vaccinated animals treated with BQ-788, CD3^+ cells represented 15% of the cells (range 8 to 30%), containing both CD4^+ and CD8^+ cells (FIG. 8).

[5] = test system: intraperitoneal ID8 cells; assay: Orthotopic, intraperitoneal ID8 model of ovarian cancer (ascites, survival); assay type: in vivo, mice; settings: vaccinated animals, BQ-788 every 2nd day for 2 weeks from two weeks after i.p. ID8, versus control peptide
Procedure: as §4
(§5) Female C57BL/6 mice (8 weeks of age) were injected 3 times […]. with 1×10^6 UV-treated, apoptotic ID8 ovarian cancer cells (resuspended in 500 microliter (mcL) DMEM without supplements) in the flank. For the orthotopic, intraperitoneal model, mice were injected i.p. with 5×10^6ID8 cells.
The impact of BQ-788 on survival in vaccinated animals was also tested in the orthotopic, intraperitoneal ID8 model of ovarian cancer. Following vaccination, mice were injected i.p. with ID8 cells. Two weeks later, animals received either BQ-788 or control peptide every 2nd day for 2 weeks.

ID8 flank tumors [6] = assay: ID8 flank tumor model, BQ788 as tumor vaccine adjuvant (tumor growth); assay type: in vivo, mice
Procedure: as §4
The murine epithelial ovarian cancer cell line ID8, syngeneic to C57BL/6 mice was cultured in DMEM supplemented with 4% FBS, 13 ITS media supplement (bovine insulin (5 mg/L), human transferrin (5 mg/L), and sodium selenite ([…]); Sigma), and antibiotics.
as §5
To confirm that ETRB plays a role in inhibiting T cell homing to human ovarian cancers, the ID8 syngeneic mouse model of ovarian cancer was utilized. This model responds modestly to potent dendritic cell (DC) vaccination. Strong expression of ETRB was detected in tumor endothelium in ID8 flank tumors by IHC (FIG. 7). […]

ID8 cells = assay: CTL assay, lysis of ID8 cells by CD3+/CD8+ splenocytes; assay type: cell-based, mice; settings: splenocytes from vaccinated animals treated with BQ-788

## CCCC[C@@H](NC(=O)[C@@H](Cc1cn(C(=O)OC)c2ccccc12)NC(=O)[C@H](CC(C)(C)C)NC(=O)N1[C@H](C)CCC[C@@H]1C)C(=O)O [BQ-788]
HUVEC [1]; BQ788/Endothelin-treated HUVEC
  T cell adherence relative to TNF-alpha activation of HUVEC: 40%
HUVEC [1]
  adherence of activated human T cells to HUVEC: increased adherence
HUVEC [1]; listed as BQ788
  adherence of activated human T cells to HUVEC: increased ability of T cells to adhere
CD3+/CD8+ splenocytes
  proliferation of lymphocytes from vaccinated mice: similar
HUVEC [2]; BQ788-treated HUVEC
  mRNA levels for ICAM-2, ICAM-3, E-selectin, JAM, CXCL-11, CCL-19, or CCL-21: No specific changes were detected
HUVEC [2]; BQ788-treated HUVEC in the presence of Endothelin
  expression of VE-Cadherin mRNA: decrease; also recorded: decreased expression of VE-Cadherin
HUVEC [2]
  morphology of HUVEC: distinct morphological change
HUVEC [2]; listed as BQ788
  morphology of HUVEC: Morphologic changes
HUVEC [2]; Endothelin and BQ-788 compared to untreated HUVEC, Endothelin alone, or Endothelin plus ETRA antagonist
  increased expression of ICAM-1 mRNA, qRT-PCR: over 7 fold
HUVEC [2]; Endothelin+BQ788-treated HUVEC as compared to Endothelin alone or BQ788 alone
  expression of ICAM1, qRT-PCR (in words): increased expression of ICAM1
HUVEC [3]; HUVEC exposed to ET-1
  suppression of ROS compared with bacterial LPS: as potent as bacterial LPS
HUVEC [3]
  ROS in HUVEC: abrogated such response to ET-1
ID8 flank tumors [4]; BQ788 treated animals as compared to control animals
  numbers of CD3+, CD8+ T cells in tumors, FACS analysis: increased numbers of CD3^+, CD8^+ T cells
ID8 flank tumors [4]; non-vaccinated animals treated with BQ-788
  intratumoral CD8+ T cells (IHC): scarce intratumoral CD8^+ T cells
ID8 flank tumors [4]; non-vaccinated animals treated with BQ-788, stated together with vaccinated animals treated with control peptide
  CD3+ cells as share of the cells of dissected tumors, flow cytometry, average: 4%
ID8 flank tumors [4]; vaccinated animals treated with BQ-788
  CD3+ cells as share of the cells of dissected tumors, flow cytometry: 15%
ID8 flank tumors [4]; vaccinated mice treated with BQ-788
  intratumoral CD8+ T cells (IHC): very strong infiltration by CD8^+ T cells
ID8 flank tumors [4]; vaccinated mice treated with BQ-788, listed as BQ788
  intratumoral CD8+ T cells (IHC): significant numbers of CD8^+ T cells
[5]
  ascites development: developed ascites later
  survival: significant prolongation of survival
ID8 flank tumors [6]; non-vaccinated mice treated with BQ-788
  tumor growth delay: not observed
ID8 flank tumors [6]; vaccinated mice, i.p. BQ-788 every 2nd day for 2 weeks, starting at 2 or at 5 weeks after engraftment
  tumor growth: significant reduction in tumor growth
ID8 cells
  ID8 cell killing by CD3+/CD8+ splenocytes: robust ID8 cell killing

## COC(=O)[C@@H](N)CCCNC(=N)N[N+](=O)[O-] [L-NAME]
HUVEC [1]
  T cell adhesion to HUVEC in the presence of TNF- and ET-1: restored T cell adhesion

## NCCN(CCN)/[N+]([O-])=N/O [DETANO]
HUVEC [1]
  T cell adhesion to HUVEC in the presence of TNF- and ET-1: mimicked the effects of ET-1

## CC[C@H](C)[C@H](NC(=O)[C@H](CC(=O)O)NC(=O)[C@H](CC(C)C)NC(=O)[C@H](Cc1c[nH]cn1)NC(=O)[C@@H]1CSSC[C@H](N)C(=O)N[C@@H](CO)C(=O)N[C@H]2CSSC[C@H](NC(=O)[C@H](CCC(=O)O)NC(=O)[C@H](CCCCN)NC(=O)[C@H](CC(=O)O)NC(=O)[C@H](CCSC)NC(=O)[C@H](CC(C)C)NC(=O)[C@H](CO)NC(=O)[C@H](CO)NC2=O)C(=O)N[C@@H](C(C)C)C(=O)N[C@@H](Cc2ccc(O)cc2)C(=O)N[C@@H](Cc2ccccc2)C(=O)N1)C(=O)N[C@H](C(=O)N[C@@H](Cc1c[nH]c2ccccc12)C(=O)O)[C@@H](C)CC [rhET-1]
HUVEC [3]
  ROS in HUVEC: upregulated ROS
